Laboratory results published in US20230255953A1, “USE OF ROLUPERIDONE IN PREVENTING RELAPSE IN SCHIZOPHRENIA PATIENTS” (Minerva Neurosciences, Inc., priority 2022, published 2023).

Assays:
[1] = test system: patients with negative symptoms of schizophrenia; test: Study #1 (MIN-101C03): rate of relapse; type: in vivo, human; conditions: for Rate of relapse (%) / Rate of relapse (number of patients): DB period, MIN-101C03
Procedure: “Time to relapse” in the DB period is defined as the number of days from Day 1 to the date of early trial termination due to relapse. […] Treatment differences in time to relapse in the DB period were analyzed using a Cox-regression model with treatment group and Baseline PANSS total score as covariates. For the analysis of the OL period, this analysis was repeated to analyze treatment differences in time to relapse in the study. For the OL period analysis, patients who were not observed to relapse in the study were censored on the date on which they ended the study. Kaplan-Meier plots of time to relapse in the DB period, OL period, and in the study were generated.
In some embodiments, for any of the methods disclosed herein, a relapse refers to a patient who is terminated early during treatment (or a study trial) due to worsening of psychosis or an adverse event or generalized symptom in Table 1.
Phase 2b Study #1 (also referred to herein as “MIN-101C03”) was a Phase 2b, double-blind (“DB”), placebo-controlled, randomized, multicenter 12-week study to evaluate the efficacy, safety, and tolerability of Roluperidone in patients ≥18 years to ≤60 years with negative symptoms of schizophrenia, followed by a 24-week open-label (“OL”) extension. The primary objective of the study was to evaluate the efficacy of Roluperidone compared to placebo in improving the negative symptoms of schizophrenia as measured by the change from Baseline in the PANSS negative factor score of the PSM (“PANSS PSM”) over 12 weeks of treatment.
The study consisted of a pretreatment screening period of up to 28 days (including washout), a 12-week, DB, placebo-controlled period, and a 24-week OL period. Eligible patients (who were symptomatically stable for at least 3 months and had scores of at least 20 on the PANSS negative subscale score) were randomized in a 1:1:1 ratio to receive oral Roluperidone (a modified-release, “MR”, formulation) 32 mg QD, Roluperidone 64 mg QD, or placebo for 12 weeks. […] During the 24-week, OL treatment extension period, patients who were initially randomized to Roluperidone 32 mg or 64 mg continued on the same dose, while patients who were initially randomized to placebo crossed over to Roluperidone 32 mg or 64 mg in a 1:1 ratio.

[2] = test system: patients with negative symptoms of schizophrenia; test: Integrated analysis (pooled ITT): patient disposition, reasons for withdrawal; type: in vivo, human; conditions: for Withdrawn from double-blind period: Adverse event, % / Withdrawn from double-blind period: Death, % / Withdrawn from double-blind period: Lack of efficacy, %: DB
Procedure: The Efficacy data from Study Nos. 1 and 2 were pooled. The majority of patients in the pooled ITT population completed the DB period (502 patients overall, 66.3%), with similar rates in each treatment group (placebo: 69.8%, 32 mg Roluperidone: 65.3%, and 64 mg Roluperidone: 63.8%) (Table 12). The majority (62.7%) of those who completed the DB period entered the OL period. The most common reason for discontinuation during the DB period among patients overall was withdrawal of consent (15.6%), followed by adverse events (7.3%) and lack of efficacy (5.4%) (Table 12). […] Approximately twice as many patients in the Roluperidone groups (32 mg: 8.5%; 64 mg: 9.1%) discontinued due to adverse events compared with patients in the placebo group (4.3%). More patients in the placebo group discontinued due to lack of efficacy (6.7%) than in the Roluperidone groups (32 mg: 4.4%; 64 mg: 5.1%). The low number of patients who discontinued due to lack of efficacy or withdrawal of consent probably reflects a low level of worsening of positive symptoms.
A similar proportion of patients in each OL treatment group entered the OL period from the DB period (range: 61.3% to 65.6%) (Table 13). The most common reason for discontinuation in the OL period among patients was withdrawal of consent (93 patients, 12.3%), followed by adverse event (45 patients, 5.9%) and lack of efficacy (16 patients, 2.1%).

[3] = Placebo in DB to 32 mg in OL (N = 128)
[4] = Placebo in DB to 64 mg in OL (N = 127)
[5] = Placebo in DB to Roluperidone in OL, Total (N = 255)
[6] = Roluperidone at Any Time 32 mg (N = 376)
[7] = Roluperidone at Any Time 64 mg (N = 381)

Substance: 1H-Isoindol-1-one,2-[ [1-[2-(4-fluorophenyl)-2-oxoethyl]-4-piperidinyl]methyl]-2,3-dihydro-, hydrochloride, hydrate (1:1:2) [Roluperidone]
- Rate of relapse (%) ([1]; 32 mg): 7%
- Rate of relapse (number of patients) ([1]; 32 mg): 5
- Rate of relapse (%) ([1]; 64 mg): 9%
- Rate of relapse (number of patients) ([1]; 64 mg): 7
- Relapse by study phase ([1]; Study #1 (n = 244), all subjects, Double-blind (12-weeks)): 11.5%
- Relapse overall (discontinued because of positive symptoms worsening) ([1]; Study #1 (n = 244), Overall (over 36 weeks)): 15.2%
- Relapse by study phase ([1]; Study #1, Open-label (over 24 weeks)): 6%
- Withdrawn from double-blind period: Adverse event, % ([2]; 32 mg (N = 248)): 8.5%
- Withdrawn from double-blind period: Death, % ([2]; 32 mg (N = 248)): 0.4%
- Withdrawn from double-blind period: Lack of efficacy, % ([2]; 32 mg (N = 248)): 4.4%
- Withdrawn from double-blind period: Adverse event, % ([2]; 64 mg (N = 254)): 9.1%
- Withdrawn from double-blind period: Lack of efficacy, % ([2]; 64 mg (N = 254)): 5.1%
- Withdrawn from OL period: Adverse event, % [2, 3]: (6.3) %
- Withdrawn from OL period: Lack of efficacy, % [2, 3]: (3.1) %
- Withdrawn from OL period: Adverse event, % [2, 4]: (3.9) %
- Withdrawn from OL period: Lack of efficacy, % [2, 4]: (1.6) %
- Withdrawn from OL period: Adverse event, % [2, 5]: (5.1) %
- Withdrawn from OL period: Lack of efficacy, % [2, 5]: (2.4) %
- Withdrawn from double-blind period: Adverse event, % ([2]; Roluperidone Total (N = 502)): 8.8%
- Withdrawn from double-blind period: Death, % ([2]; Roluperidone Total (N = 502)): 0.2%
- Withdrawn from double-blind period: Lack of efficacy, % ([2]; Roluperidone Total (N = 502)): 4.8%
- Withdrawn from OL period: Adverse event, % [2, 6]: (5.6) %
- Withdrawn from OL period: Lack of efficacy, % [2, 6]: (2.1) %
- Withdrawn from OL period: Adverse event, % [2, 7]: (6.3) %
- Withdrawn from OL period: Lack of efficacy, % [2, 7]: (2.1) %
